{"source": "ChEMBL document CHEMBL1130653", "about": "“Derivatization of the C12-C13 functional groups of epothilones A, B and C” (Bioorg Med Chem Lett, 1998)", "data": [{"assay": "Compound was tested for cytotoxicity against L929 fibroblast cell lines in mouse", "type": "functional, cell-based", "units": {"IC50": "ng/mL"}, "values": [{"smiles": "C/C(=C\\c1csc(C)n1)[C@@H]1C/C=C\\CCC[C@H](C)[C@H](O)[C@@H](C)C(=O)C(C)(C)[C@@H](O)CC(=O)O1", "note": "[EPOTHILONE C]", "IC50": 100}, {"smiles": "C/C(=C\\c1csc(C)n1)[C@@H]1CC2OC(C)(C)OC2CCC[C@H](C)[C@H](O)[C@@H](C)C(=O)C(C)(C)[C@@H](O)CC(=O)O1", "note": "(stereo partly drawn)", "IC50": 150}, {"smiles": "C/C(=C\\c1csc(C)n1)[C@@H]1CC(O)C(O)CCC[C@H](C)[C@H](O)[C@@H](C)C(=O)C(C)(C)[C@@H](O)CC(=O)O1", "note": "(stereo partly drawn)", "IC50": "> 4000"}]}, {"assay": "Cytotoxicity against L929 fibroblast cell line; Weak cytotoxic activity.", "type": "functional, cell-based, Mus musculus", "values": [{"smiles": "C/C(=C\\c1csc(C)n1)[C@@H]1C[C@@H](Cl)[C@H](O)CCC[C@H](C)[C@H](O)[C@@H](C)C(=O)C(C)(C)[C@@H](O)CC(=O)O1", "IC50": "Weak cytotoxic activity"}, {"smiles": "C/C(=C\\c1csc(C)n1)[C@@H]1C[C@H](O)[C@@]2(C)CCC[C@H](C)[C@H](O)[C@@H](C)C(=O)C(C)(C)C(CC(=O)O1)O2", "IC50": "Weak cytotoxic activity"}, {"smiles": "C/C(=C\\c1csc(C)n1)[C@@H]1C[C@@H]2OC(C)(C)O[C@@H]2CCC[C@H](C)[C@H](O)[C@@H](C)C(=O)C(C)(C)C(O)CC(=O)O1", "note": "(stereo partly drawn)", "IC50": "Weak cytotoxic activity"}, {"smiles": "C/C(=C\\c1csc(C)n1)[C@@H]1C[C@H](O)[C@@](C)(O)CCC[C@H](C)[C@H](O)[C@@H](C)C(=O)C(C)(C)C(O)CC(=O)O1", "note": "(stereo partly drawn)", "IC50": "Weak cytotoxic activity"}, {"smiles": "C/C(=C\\c1csc(C)n1)[C@@H]1C[C@H](O)[C@@H](Cl)CCC[C@H](C)[C@H](O)[C@@H](C)C(=O)C(C)(C)[C@@H](O)CC(=O)O1", "IC50": "Weak cytotoxic activity"}, {"smiles": "C/C(=C\\c1csc(C)n1)[C@H](O)C[C@H]1OC(=O)C[C@H](O)C(C)(C)C(=O)[C@H](C)[C@@H](O)[C@@H](C)CCC[C@@]1(C)O", "IC50": "Weak cytotoxic activity"}, {"smiles": "C/C(=C\\c1csc(C)n1)[C@H]1C[C@H]2OCC[C@H](O)C(C)(C)C(=O)[C@H](C)[C@@H](O)[C@@H](C)CCC[C@H]2O1", "IC50": "Weak cytotoxic activity"}, {"smiles": "COC(C[C@H]1OC(=O)C[C@H](O)C(C)(C)C(=O)[C@H](C)[C@@H](O)[C@@H](C)CCC[C@H]1O)C(C)Cc1csc(C)n1", "note": "(stereo partly drawn)", "IC50": "Weak cytotoxic activity"}, {"smiles": "Cc1nc(CC(C)C(O)C[C@H]2OC(=O)C[C@H](O)C(C)(C)C(=O)[C@H](C)[C@@H](O)[C@@H](C)CCC[C@H]2O)cs1", "note": "(stereo partly drawn)", "IC50": "Weak cytotoxic activity"}, {"smiles": "C/C(=C\\c1csc(C)n1)[C@@H]1C[C@H](O)[C@@](C)(Cl)CCC[C@H](C)[C@H](O)[C@@H](C)C(=O)C(C)(C)[C@@H](O)CC(=O)O1", "IC50": "Weak cytotoxic activity"}, {"smiles": "C/C(=C\\c1csc(C)n1)[C@@H]1C[C@H]2OC(=O)C[C@H](O)C(C)(C)C(=O)[C@H](C)[C@@H](O)[C@@H](C)CCC[C@H]2O1", "IC50": "Weak cytotoxic activity"}, {"smiles": "C/C(=C\\c1csc(C)n1)[C@@H](O)C[C@H]1OC(=O)C[C@H](O)C(C)(C)C(=O)[C@H](C)[C@@H](O)[C@@H](C)CCC[C@@]1(C)O", "IC50": "Weak cytotoxic activity"}, {"smiles": "C/C(=C\\c1csc(C)n1)[C@@H]1C[C@H]2OCC[C@H](O)C(C)(C)C(=O)[C@H](C)[C@@H](O)[C@@H](C)CCC[C@H]2O1", "IC50": "Weak cytotoxic activity"}, {"smiles": "C/C(=C\\c1csc(C)n1)[C@@H]1C[C@@H](O)[C@H](O)CCC[C@H](C)[C@H](O)[C@@H](C)C(=O)C(C)(C)C(O)CC(=O)O1", "note": "(stereo partly drawn)", "IC50": "Weak cytotoxic activity"}, {"smiles": "C/C(=C\\c1csc(C)n1)[C@@H]1C[C@H](O)[C@H](O)CCC[C@H](C)[C@H](O)[C@@H](C)C(=O)C(C)(C)C(O)CC(=O)O1", "note": "(stereo partly drawn)", "IC50": "Weak cytotoxic activity"}, {"smiles": "C/C(=C\\c1csc(C)n1)[C@@H]1C[C@@H]2O[C@]2(C)CCC[C@H](C)[C@H](O)[C@@H](C)C(=O)C(C)(C)[C@@H](O)CC(=O)O1", "note": "[PATUPILONE]", "IC50": "Weak cytotoxic activity"}, {"smiles": "C/C(=C\\c1csc(C)n1)[C@@H]1C[C@@H](O)[C@@H](O)CCC[C@H](C)[C@H](O)[C@@H](C)C(=O)C(C)(C)C(O)CC(=O)O1", "note": "(stereo partly drawn)", "IC50": "Weak cytotoxic activity"}, {"smiles": "C/C(=C\\c1csc(C)n1)[C@H]1C[C@H]2OC(=O)C[C@H](O)C(C)(C)C(=O)[C@H](C)[C@@H](O)[C@@H](C)CCC[C@H]2O1", "IC50": "Weak cytotoxic activity"}, {"smiles": "C/C(=C\\c1csc(C)n1)[C@@H]1CCCCCC[C@H](C)[C@H](O)[C@@H](C)C(=O)C(C)(C)C(O)CC(=O)O1", "note": "(stereo partly drawn)", "IC50": "Weak cytotoxic activity"}, {"smiles": "C/C(=C\\c1csc(C)n1)[C@@H]1C[C@@H]2O[C@@H]2CCC[C@H](C)[C@H](O)[C@@H](C)C(=O)C(C)(C)[C@@H](O)CC(=O)O1", "note": "[EPOTHILONE A]", "IC50": "Weak cytotoxic activity"}]}]}
